Experimental findings from US7442802B2, “Cyclooxygenase-2 selective inhibitors, compositions and methods of use” (NitroMed, Inc., priority 2002, dated 2008) are described below.

One assay addresses T1, COX-2 (Homo sapiens, UniProt P35354).
T1 construct: To induce COX-2, lipopolysaccharide (LPS) from E. coli; endogenous in cells; host or cells: heparinised human whole blood from donors, with COX-2 induced by E. coli LPS
T1 sequence (P35354 18-604): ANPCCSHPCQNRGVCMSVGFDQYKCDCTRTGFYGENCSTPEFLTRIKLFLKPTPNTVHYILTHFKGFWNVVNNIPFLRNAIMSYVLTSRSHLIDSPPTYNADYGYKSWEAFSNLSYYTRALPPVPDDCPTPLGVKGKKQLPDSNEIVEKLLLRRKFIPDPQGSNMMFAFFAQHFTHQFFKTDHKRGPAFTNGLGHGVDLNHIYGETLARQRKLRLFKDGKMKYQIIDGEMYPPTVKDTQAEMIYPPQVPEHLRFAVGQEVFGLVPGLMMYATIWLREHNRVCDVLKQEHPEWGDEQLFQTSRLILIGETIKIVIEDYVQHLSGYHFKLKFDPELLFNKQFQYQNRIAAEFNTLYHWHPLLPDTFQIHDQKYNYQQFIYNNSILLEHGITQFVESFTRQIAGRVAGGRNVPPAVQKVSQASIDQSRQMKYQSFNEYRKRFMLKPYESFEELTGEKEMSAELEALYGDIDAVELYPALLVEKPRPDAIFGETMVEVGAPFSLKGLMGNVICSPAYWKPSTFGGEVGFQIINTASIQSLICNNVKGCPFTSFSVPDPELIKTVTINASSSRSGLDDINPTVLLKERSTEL
Briefly: Human COX-2 enzyme activity in human whole blood (LPS-induced, thromboxane B2 EIA). Type of assay: cell-based. The settings on record: for inhibition at 1 µM: read-out: COX-2 Inhibition (% at 1 μM); for inhibition at 10 µM: read-out: COX-2 Inhibition (% at 10 μM). Here is the method:
(§1) The blood was transported to the laboratory on ice packs and used within 1.5 hours of collection. Upon receipt in the laboratory, the blood was allowed to come to room temperature for 15 minutes prior to distribution in 1 mL aliquots per well of 24 well tissue culture plates. […] Test compounds were dissolved in DMSO, at 1000 fold the final desired concentration, and further diluted, as indicated, in DMSO. One μL of each dilution of the test compound was added per well, in duplicate wells; wells not receiving test compound (e.g., basal, background or control wells) received 1 μL DMSO. […] Louis, Mo., Catalogue No. […] Louis, Mo., Catalogue No. […] (Again, basal, background or control wells not stimulated with A23187 received 1 μL of DMSO.) At 5 hours after the addition of the test compound, all incubations were terminated by placement on ice and the addition of 2 mM EGTA (100 μL of 20 mM EGTA, tetrasodium, in PBS (phosphate buffered saline) without Ca^++ and Mg^++, pH 7.2)). […] One hundred μL of plasma was removed from each blood sample and added to 1 mL of methanol in new 15 mL polypropylene centrifuge tubes, vortexed, and stored overnight at -20° C. […] The samples were assayed for thromboxane B2 using EIA kits supplied by Cayman Chemical Co. […] The % inhibition for COX-1 and COX-2 enzyme activity in human whole blood by the test compounds, at the indicated concentrations, are given in Table 1.

For the next assay, the target named is T2, COX-1 (Homo sapiens, UniProt P23219).
T2 construct: endogenous in cells; host or cells: heparinised human whole blood from donors, stimulated with the calcium ionophore A23187
Briefly: Human COX-1 enzyme activity in human whole blood (A23187-stimulated, thromboxane B2 EIA). The settings on record: for inhibition at 100 µM: read-out: COX-1 Inhibition (% at 100 μM). Type of assay: cell-based. Here is the method:
as §1

Where [1] appears, read: 1 μM, human whole blood, LPS induction.
Setting [2] is: 10 μM, human whole blood, LPS induction.
Setting [3] is: 100 μM, human whole blood, A23187 stimulation.

Read-outs that look alike come from different tables or passages of the source.

T2 sequence (P23219 24-599): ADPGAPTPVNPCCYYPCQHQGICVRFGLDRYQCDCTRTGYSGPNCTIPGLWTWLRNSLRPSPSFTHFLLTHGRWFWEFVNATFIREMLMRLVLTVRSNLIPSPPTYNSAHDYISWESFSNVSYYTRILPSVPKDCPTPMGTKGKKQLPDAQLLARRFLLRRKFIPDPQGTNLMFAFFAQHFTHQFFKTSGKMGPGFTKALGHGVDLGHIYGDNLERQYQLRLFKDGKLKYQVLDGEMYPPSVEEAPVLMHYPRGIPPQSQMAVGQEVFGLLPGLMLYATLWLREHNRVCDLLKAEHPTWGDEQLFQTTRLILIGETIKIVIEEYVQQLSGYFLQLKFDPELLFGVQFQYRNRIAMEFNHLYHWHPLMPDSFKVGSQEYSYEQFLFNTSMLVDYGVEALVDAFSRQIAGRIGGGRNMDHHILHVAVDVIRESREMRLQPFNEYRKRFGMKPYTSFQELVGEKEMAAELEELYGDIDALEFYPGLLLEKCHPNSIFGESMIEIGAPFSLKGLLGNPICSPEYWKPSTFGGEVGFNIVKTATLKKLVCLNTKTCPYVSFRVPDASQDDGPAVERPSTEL

With `CS(=O)(=O)c1ccc(-c2cc(C(=O)CCCO)nn2C2CCCCC2)cc1` [Example 3e, 1-(1-Cyclohexyl-5-(4-(methylsulfonyl)phenyl)pyrazol-3-yl)-4-hydroxybutan-1-one], on COX-2 (setting [1]), the inhibition (as a rule, the drop in the measured response relative to a control, in per cent) at 1 µM was 60%. The inhibition at 10 µM on COX-2 (setting [2]) was determined as 90%. Further, the inhibition at 100 µM at COX-1 (setting [3]) turned out to be 0%.
For `CS(=O)(=O)c1ccc(-c2cc(COCCCO)nn2C2CCCCC2)cc1` [Example 16b, 1-(1-Cyclohexyl-3-((3-hydroxypropoxy)methyl)pyrazol-5-yl)-4-(methylsulfonyl)benzene], in that order: 20%, 55% and 10%.
The corresponding values for `CS(=O)(=O)c1ccc(-c2cc(COc3cccc(CO)c3)nn2C2CCCCC2)cc1` [Example 17b, 1-(1-Cyclohexyl-3-((3-(hydroxymethyl)phenoxy)methyl)pyrazol-5-yl)-4-(methylsulfonyl)benzene] are 135%, 100% and 80%.
Consider “4-(5-(Chlorophenyl)-3-((3-(nitrooxy)propoxy)methyl)benzene-sulfonamide [Example 36c]”, for which the “COX-2 Inhibition (% at 1 μM)” value at COX-2 (setting [1]) stood at 40%. For the same molecule, the “COX-2 Inhibition (% at 10 μM)” value on COX-2 (setting [2]) amounted to 80%. The “COX-1 Inhibition (% at 100 μM)” value at COX-1 (setting [3]) is recorded as 55%.
`CS(=O)(=O)c1ccc(-c2cc(COCCO)nn2C2CCCCC2)cc1` [Example 15d, 1-(1-Cyclohexyl-3-((2-hydroxyethoxy)methyl)pyrazol-5-yl)-4-(methylsulfonyl)benzene]: the inhibition at 1 µM at COX-2 (setting [1]) stood at 0%. The inhibition at 10 µM on COX-2 (setting [2]) was 40%. Moreover, the inhibition at 100 µM on COX-1 (setting [3]) worked out at 10%.
For `NS(=O)(=O)c1ccc(-c2c(-c3ccccc3)noc2COCC(F)(F)CO)cc1` [Example 32c, 4-(5-((2,2-Difluoro-3-hydroxypropoxy)methyl)-3-phenylisoxazol-4-yl)benzenesulfonamide], in that order: 15%, 75% and -20%.
The corresponding values for `CS(=O)(=O)c1ccc(-c2cc(COCCCO)nn2-c2ccc(Cl)cc2)cc1` [Example 7d, 1-(1-(4-Chlorophenyl)-3-((3-hydroxypropoxy)methyl)pyrazol-5-yl)-4-(methylsulfonyl)benzene] are 25%, 95% and 80%.
For `COc1ccc(-n2nc(C(=O)CCCO)cc2-c2ccc(S(C)(=O)=O)cc2)cc1` [Example 24d, 4-Hydroxy-1-(1-(4-methoxyphenyl)-5-(4-(methylsulfonyl)phenyl)-pyrazol-3-yl)butan-1-one], the inhibition at 1 µM on COX-2 (setting [1]) is 50%. The inhibition at 10 µM at COX-2 (setting [2]) is 85%. Besides, on COX-1 (setting [3]), the inhibition at 100 µM was 85%.
With `NS(=O)(=O)c1ccc(-c2c(-c3ccccc3)noc2COCC(F)(F)C(F)(F)C(F)(F)CO)cc1` [Example 34a, 4-(5-((2,2,3,3,4,4-Hexafluoro-5-hydroxypentyloxy)methyl)-3-phenylisoxazol-4-yl)benzenesulfonamide], on COX-2, the inhibition at 1 µM was 90% and the inhibition at 10 µM was found to be 100%. Besides, the inhibition at 100 µM on COX-1 worked out at 95%.
Turning to “4-(5-(4-Chlorophenyl)-3-((3-hydroxypropoxy)methyl)pyrazolyl)benzenesulfonamide [Example 28a]”, the “COX-2 Inhibition (% at 1 μM)” value on COX-2 (setting [1]) stood at 30%. Moreover, the “COX-2 Inhibition (% at 10 μM)” value on COX-2 (setting [2]) turned out to be 55%. For the same molecule, at COX-1 (setting [3]), the “COX-1 Inhibition (% at 100 μM)” value turned out to be 30%.
With `CS(=O)(=O)c1ccc(-c2cc(CO)nn2C2CCCCCCC2)cc1` [Example 1g], the “COX-2 Inhibition (% at 1 μM)” value on COX-2 (setting [1]) is on record as 35%. The “COX-2 Inhibition (% at 10 μM)” value on COX-2 (setting [2]) worked out at 75%. Moreover, the “COX-1 Inhibition (% at 100 μM)” value on COX-1 (setting [3]) stood at 35%.
With `COc1ccc(-n2nc(COCCCO[N+](=O)[O-])cc2-c2ccc(S(C)(=O)=O)cc2)cc1` [Example 39, 4-(1-(4-Methoxyphenyl)-3-((3-(nitrooxy)propoxy)methyl)pyrazol-5-yl)-1-(methylsulfonyl)benzene], the inhibition at 1 µM at COX-2 (setting [1]) came out at 85%. Moreover, the inhibition at 10 µM at COX-2 (setting [2]) was 100%. For the same molecule, the inhibition at 100 µM on COX-1 (setting [3]) was 100%.
On to `CS(=O)(=O)c1ccc(-c2cc(C(=O)CCCO)nn2-c2ccc(Br)cc2)cc1` [Example 14d, 1-(1-(4-Bromophenyl)-5-(4-(methylsulfonyl)phenyl)pyrazol-3-yl)-4-hydroxybutan-1-one], for which the inhibition at 1 µM on COX-2 (setting [1]) amounted to 15%. Besides, on COX-2 (setting [2]), the inhibition at 10 µM is 70%. For the same molecule, the inhibition at 100 µM on COX-1 (setting [3]) is 0%.
As to `CS(=O)(=O)c1ccc(-c2cc(C(=O)CCCCCO[N+](=O)[O-])nn2C2CCCCC2)cc1` [Example 22d], on COX-2 (setting [1]), the “COX-2 Inhibition (% at 1 μM)” value was 30%. Moreover, the “COX-2 Inhibition (% at 10 μM)” value on COX-2 (setting [2]) was determined as 30%. The “COX-1 Inhibition (% at 100 μM)” value at COX-1 (setting [3]) worked out at 75%.
Take `CS(=O)(=O)c1ccc(-c2cc(/C=C/CCO)nn2C2CCCCC2)cc1` [Example 21b]: on COX-2 (setting [1]), the “COX-2 Inhibition (% at 1 μM)” value is reported as 10%. Further, at COX-2 (setting [2]), the “COX-2 Inhibition (% at 10 μM)” value turned out to be 25%. Moreover, at COX-1 (setting [3]), the “COX-1 Inhibition (% at 100 μM)” value amounted to 10%.
As to `CS(=O)(=O)c1ccc(-c2cc(/C=C\CCO[N+](=O)[O-])nn2-c2ccccc2)cc1` [Example 11e, 1-(3-((1Z)-4-(Nitrooxy)but-1-enyl)-1-phenylpyrazol-5-yl)-4-(methylsulfonyl)benzene], on COX-2 (setting [1]), the inhibition at 1 µM turned out to be 95%. On COX-2 (setting [2]), the inhibition at 10 µM stood at 100%. Further, the inhibition at 100 µM on COX-1 (setting [3]) turned out to be 90%.
`CS(=O)(=O)c1ccc(-c2cc(C(=O)CO[N+](=O)[O-])nn2-c2ccccn2)cc1` [Example 35c, 1-(5-(4-(Methysulfonyl)phenyl)-1-(2-pyridyl)pyrazol-3-yl)-2-(nitrooxy)ethan-1-one]: the “COX-2 Inhibition (% at 1 μM)” value at COX-2 (setting [1]) is listed as 25%. Moreover, the “COX-2 Inhibition (% at 10 μM)” value at COX-2 (setting [2]) was 30%. In addition, on COX-1 (setting [3]), the “COX-1 Inhibition (% at 100 μM)” value is 0%.
On to `NS(=O)(=O)c1ccc(-c2c(-c3ccccc3)noc2COCCS(=O)(=O)CCO)cc1` [Example 37b, 4-(5-((2-((2-Hydroxyethyl)sulfonyl)ethoxy)methyl)-3-phenylisoxazol-4-yl)benzenesulfonamide], for which the inhibition at 1 µM at COX-2 (setting [1]) amounted to 35%. Besides, the inhibition at 10 µM at COX-2 (setting [2]) came out at 90%. The inhibition at 100 µM on COX-1 (setting [3]) is 50%.
The corresponding values for `CS(=O)(=O)c1ccc(-c2cc(COCCCO[N+](=O)[O-])nn2C2CCCCC2)cc1` [Example 16c, 1-(1-Cyclohexyl-3-((3-(nitrooxy)propoxy)methyl)pyrazol-5-yl)-4-(methylsulfonyl)benzene] are 45%, 85% and 10%.
For `Cc1ccc(-n2nc(C(=O)CCCO)cc2-c2ccc(S(C)(=O)=O)cc2)cc1` [Example 12d, 4-Hydroxy-1-(1-(4-methylphenyl)-5-(4-(methylsulfonyl)phenyl)pyrazol-3-yl)butan-1-one], in that order: 15%, 45% and 0%.
As for `CS(=O)(=O)c1ccc(-c2cc(C(=O)CCCO)nn2-c2ccc(F)cc2)cc1` [Example 13d, 1-(1-(4-Fluorophenyl)-5-(4-(methylsulfonyl)phenyl)pyrazol-3-yl)-4-hydroxybutan-1-one], the inhibition at 1 µM on COX-2 (setting [1]) stood at 25%. Besides, at COX-2 (setting [2]), the inhibition at 10 µM came to 25%. For the same molecule, at COX-1 (setting [3]), the inhibition at 100 µM is 0%.
